Earlier results as cited in patent US7759468B1, “Bioactive peptide-based probes” (priority 2003, dated 2010).

Tested on: L. lactis ssp. lactis C2
Details: known / from the literature; cited from earlier work

With Glu-Glu [Glu-Glu peptide] as the substance, how does the Inhibition of growth read?
The Inhibition of growth was “potent inhibitor of growth”.
